Laboratory results published in patent US6716819B2, “Use of xylitol to reduce ionic strength and activate endogenous antimicrobials for prevention and treatment of infections” (University of Iowa Research Foundation, priority 2000, dated 2004).

System: bacteria from the nasal surface
Test: Growth of normal nasal flora from nasal swabs in M9 media
Type: cell-based
Conditions: M9 media with 100 mM xylitol, 72 hours at 37° C.
Protocol: FIGS. 5(A-G). Effect of xylitol on growth of different airway pathogens. A, B and C. Growth of P. aeruginosa (A), S. aureus, (B), and coagulase-negative Staphylococcus (C) were measured as O. D. M9 media alone is indicated by open triangle. Xylitol (closed circle), or succinate, mannitol, or sucrose (open circles), were added to M9 media at 100 mM as indicated. D. Nasal swabs were collected and cultured for 3 days in Lauria-Bertani media (open circles), in minimal M9 media (open squares), or in M9 media supplemented with 100 mM xylitol (closed circles). E, F and G. P. aeruginosa (E), S. aureus (F), and coagulase-negative Staphylococcus (G) were cultured in Lauria-Bertani media alone (open triangles), Lauria-Bertani media with 100 mM xylitol (closed circles), and Lauria-Bertani media containing tobramycin or levofloxacin (open circles).
To test the effect of xylitol on growth of normal nasal flora in a carbon-starved media, nasal swabs were obtained from 3 normal volunteers and the swabs were inoculated into M9 media alone, M9 with 100 mM xylitol, or Lauria-Bertani media. The media were incubated at 37° C. for 72 hours and the O.D. were recorded.
It was tested whether xylitol would support bacterial growth. P. aeruginosa were placed in M9 media, which lacks a carbon source. […] In contrast, there was no growth of P. aeruginosa when M9 media was supplemented with xylitol. […]

## OC[C@@H](O)[C@H](O)[C@@H](O)CO [xylitol]
  growth of bacteria from nasal swabs: no growth
